# Counter-ions that a name gives are not always drawn.
# Columns and labels:
# squalene synthetase = biological target: T1, squalene synthetase (Homo sapiens, UniProt P37268); assay: Squalene synthetase inhibitory activity (human-derived enzyme prepared from HepG2 cells); assay type: biochemical; conditions: [1-3H] farnesyl pyrophosphate, 37° C., 45 minutes, read-out: Inhibitory Activity (IC50, 10^−9 M)
# T1 construct: This suspension was used as the enzyme solution; endogenous in cells; host or cells: HepG2 human hepatic carcinoma cells; membrane fraction (105000×g sediment) of the sonicate
# T1 sequence (P37268 1-417): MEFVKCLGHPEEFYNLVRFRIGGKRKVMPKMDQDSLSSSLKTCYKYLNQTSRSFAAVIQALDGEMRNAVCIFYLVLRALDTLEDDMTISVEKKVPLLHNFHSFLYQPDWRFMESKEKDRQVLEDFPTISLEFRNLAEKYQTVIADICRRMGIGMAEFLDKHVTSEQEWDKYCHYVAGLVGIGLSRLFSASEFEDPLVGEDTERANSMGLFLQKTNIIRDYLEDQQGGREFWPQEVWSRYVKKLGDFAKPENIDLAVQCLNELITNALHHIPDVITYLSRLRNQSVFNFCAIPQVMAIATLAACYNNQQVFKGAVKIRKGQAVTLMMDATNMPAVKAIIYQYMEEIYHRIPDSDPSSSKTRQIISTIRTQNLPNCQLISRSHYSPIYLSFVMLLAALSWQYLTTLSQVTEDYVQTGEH
# Protocol: The squalene synthetase inhibitory activity was assayed as follows with the enzyme solutions prepared in accordance with the method described below.
# More specifically, an enzyme solution (protein content 0.8 μg) prepared in accordance with the method described below was added to a solution (total volume 50 μl)) containing 5 μM [1-^3H] farnesyl pyrophosphate (specific activity 25 μCi/mole), 1 mM NADPH (nicotinamide adenine dinucleotide phosphate of reduced type), 5 mM MgCl2, 6 mM glutathione, a 100 mM buffer solution of potassium phosphate (pH 7.4) and a test drug (used as an aqueous solution or a DMSO solution), then the reaction was allowed to proceed at 37° C. for 45 minutes. To the reaction mixture was added 150 μl of a mixture of chloroform and methanol (1:2) to suspend the reaction, followed by adding 50 Al of chloroform and 50 μl of a 3N solution of sodium hydroxide. 50 μl of the chloroform layer (lower layer) containing the reaction mixture having squalene as the principal component and 3 ml of toluene-based liquid scintillator were mixed, and its radioactivity was determined by means of a liquid scintillation counter.
# The squalene synthetase inhibitory activity was expressed in terms of the concentration inhibiting by 50% the radioactivity taken into the chloroform layer (IC50, molar concentration (M)), as shown in Table 7. Preparation of human-derived enzyme
# Human hepatic carcinoma cells HepG2 (about 1×10^9 cells) obtained by incubation on a Dulbecco-modified Eagle's medium (37° C. in the presence of 5% CO2) containing 10% fetal bovine serum were suspended in 10 ml of an ice-cooled buffer solution (100 mM potassium phosphate buffer (pH 7.4), 30 mM nicotinamide and 2.5 mM MgCl2]. The cells were crashed by means of ultrasonication (for 30 seconds, twice). The sonicate thus obtained was subjected to centrifugation for 20 minutes (4° C.) with 10000×g. The supernatant layer was subjected to further centrifugation for 90 minutes (4° C.) with 105000×g. The sediment was then suspended in an ice-cooled 100 mM potassium phosphate buffer (pH 7.4), which was again subjected to centrifugation for 90 minutes (4° C.) with 105000×g. This fraction was suspended in an ice-cooled 100 mM potassium phosphate buffer solution (pH 7.4) (about 4 mg/ml protein concentration). This suspension was used as the enzyme solution.
Compound,IC50 (squalene synthetase) [nM],melting point [°C]
COc1cccc([C@H]2O[C@H](CC(=O)N[C@@H](Cc3ccc(O)cc3)C(=O)O)C(=O)N(CC(C)(C)C)c3ccc(Cl)cc32)c1OC [Compound 4-26],15,160 to 162
CCOP(=O)(CNC(=O)C[C@H]1O[C@H](c2cccc(OC)c2OC)c2cc(Cl)ccc2N(CC(C)(C)CO)C1=O)OCC,–,138 to 140
COc1cccc([C@H]2O[C@H](CC(=O)N3CCC(O)(C(=O)O)CC3)C(=O)N(CC(C)(C)C)c3ccc(Cl)cc32)c1OC [Compound 4-19],18,156 to 159
COc1cccc([C@H]2O[C@H](CC(=O)N(C)CC(=O)O)C(=O)N(CC(C)(C)C)c3ccc(Cl)cc32)c1OC [Compound 4-12],11,134 to 136
COc1cccc([C@H]2O[C@H](CC(=O)N3CCN(CC(=O)O)C(=O)C3)C(=O)N(CC(C)(C)C)c3ccc(Cl)cc32)c1OC [Compound 4-31],20,162 to 164
CCC(C)[C@H](NC(=O)C[C@H]1O[C@H](c2cccc(OC)c2OC)c2cc(Cl)ccc2N(CC(C)(C)C)C1=O)C(=O)O (stereo partly shown) [Compound 4-8],11,137 to 139
COc1cccc([C@H]2O[C@H](CC(=O)N3CCC(=CC(=O)O)CC3)C(=O)N(CC(C)(C)C)c3ccc(Cl)cc32)c1OC [Compound 4-18],18,228 to 230
COc1cccc([C@H]2O[C@H](CC(=O)N[C@H](C(=O)O)C(C)C)C(=O)N(CC(C)(C)C)c3ccc(Cl)cc32)c1OC [Compound 4-29],15,129 to 132
COc1cccc([C@H]2O[C@H](CC(=O)N[C@@H](Cc3ccccc3)C(=O)O)C(=O)N(CC(C)(C)C)c3ccc(Cl)cc32)c1OC [Compound 4-15],19,134 to 136
COc1cccc([C@H]2O[C@H](CC(=O)N[C@@H](CC(=O)O)C(=O)O)C(=O)N(CC(C)(C)C)c3ccc(Cl)cc32)c1OC [Compound 4-10],11,145 to 150
"COc1cccc([C@H]2O[C@H](CC(=O)NS(C)(=O)=O)C(=O)N(CC(C)(C)COC(C)=O)c3ccc(Cl)cc32)c1OC [Compound 41, (3R,5S)-N-Methylsulfonyl-1-(3-acetoxy-2,2-dimethylpropyl)-7-chloro-5-(2,3-dimethoxyphenyl)-2-oxo-1,2,3,5-tetrahydro-4,1-benzoxazepine-3-acetamide]",–,108 to 112

# Now from value to compound:
IC50 (squalene synthetase) [nM],melting point [°C],Compound
17,168 to 170,"COc1cccc([C@H]2O[C@H](CC(=O)N3CCC(Cc4nnn[nH]4)CC3)C(=O)N(CC(C)(C)C)c3ccc(Cl)cc32)c1OC [Compound 24, 5-[[N-[(3R,5S)-7-chloro-5-(2,3-dimethoxyphenyl)-1-neopentyl-2-oxo-1,2,3,5-tetrahydro-4,1-benzoxazepine-3-acetyl]piperidin-4-yl]methyl]1H(or 3H)-tetrazole]"
48,–,"COc1cccc([C@H]2O[C@H](CC(=O)NS(C)(=O)=O)C(=O)N(CC(C)(CO)CO)c3ccc(Cl)cc32)c1OC [Compound 20, (3R,5S)-N-methylsulfonyl-7-chloro-5-(2,3-dimethoxyphenyl)-1-(3-hydroxy-2-hydroxymethyl-2-methylpropyl)-2-oxo-1,2,3,5-tetrahydro-4,1-benzoxazepine-3-acetamide]"
12,130 to 133,"COc1cccc([C@H]2O[C@H](Cc3nc(=O)o[nH]3)C(=O)N(CC(C)(C)C)c3ccc(Cl)cc32)c1OC [Compound 8, (3R,5S)-7-Chloro-5-(2,3-dimethoxyphenyl)-1-neopentyl-3-(2,5-dihydro-5-oxo-1,2,4-oxadiazol-3-yl) methyl-1,2,3,5-tetrahydro-4,1-benzoxazepin-2-one]"
32,221 to 223,"COc1cccc([C@H]2O[C@H](CC(=O)NS(C)(=O)=O)C(=O)N(CC(C)(C)CO)c3ccc(Cl)cc32)c1OC [Compound 19, (3R,5S)-N-methylsulfonyl-7-chloro-5-(2,3-dimethoxyphenyl)-1-(3-hydroxy-2,2-dimethylpropyl)-2-oxo-1,2,3,5-tetrahydro-4,1-benzoxazepine-3-acetamide]"
26,175 to 180,"COc1cccc([C@H]2O[C@H](CC(=O)N3CCC(CC(=O)NS(C)(=O)=O)CC3)C(=O)N(CC(C)(C)CO)c3ccc(Cl)cc32)c1OC [Compound 21, N-methylsulfonyl-[N-[(3R,5S)-7-chloro-5-(2,3-dimethoxyphenyl)-1-(3-hydroxy-2,2-dimethylpropyl)-2-oxo-1,2,3,5-tetrahydro-4,1-benzoxazepine-3-acetyl]piperidine]-4-acetamide]"
9.3,158 to 161,COc1cccc([C@H]2O[C@H](CC(=O)NS(=O)(=O)c3ccccc3)C(=O)N(CC(C)(C)C)c3ccc(Cl)cc32)c1OC [Compound 17-2]
20,–,"COc1cccc([C@H]2O[C@H](CC(=O)NCP(=O)(O)O)C(=O)N(CC(C)(C)CO)c3ccc(Cl)cc32)c1OC [Compound 27, (3R,5S)-N-phosphonomethyl-7-chloro-5-(2,3-dimethoxyphenyl)-1-(3-hydroxy-2,2-dimethylpropyl)-2-oxo-1,2,3,5-tetrahydro-4,1-benzoxazepine-3-acetamide]"
9.5,–,"COc1cccc([C@H]2O[C@H](Cc3nnn[nH]3)C(=O)N(CC(C)(C)C)c3ccc(Cl)cc32)c1OC [Compound 9, (3R, 5S)-7-Chloro-5-(2,3-dimethoxyphenyl)-1-neopentyl-1,2,3,5-tetrahydro-3-(tetrazol-5-yl)methyl-4,1-benzoxazepin-2-one sodium salt]"
11,149 to 150,COc1cccc([C@H]2O[C@H](CC(=O)NS(=O)(=O)C(C)C)C(=O)N(CC(C)(C)C)c3ccc(Cl)cc32)c1OC [Compound 17-3]
18,–,COc1cccc([C@H]2O[C@H](CC(=O)N3CCC(C(=O)O)CC3)C(=O)N(CC(C)(C)CO)c3ccc(Cl)cc32)c1OC [Compound 13-2]
15,187 to 189,COc1cccc([C@H]2O[C@H](CC(=O)N3CCC(C(=O)NS(C)(=O)=O)CC3)C(=O)N(CC(C)(C)C)c3ccc(Cl)cc32)c1OC [Compound 18]
8.5,152 to 155,"COc1cccc([C@H]2O[C@H](CC(=O)NCP(=O)(O)O)C(=O)N(CC(C)(C)C)c3ccc(Cl)cc32)c1OC [Compound 22, (3R,5S)-N-phosphonomethyl-7-chloro-5-(2,3-dimethoxyphenyl)-1-neopentyl-2-oxo-1,2,3,5-tetrahydro-4,1-benzoxazepine-3-acetamide]"
9.3,135 to 140,CCS(=O)(=O)NC(=O)C[C@H]1O[C@H](c2cccc(OC)c2OC)c2cc(Cl)ccc2N(CC(C)(C)C)C1=O [Compound 17-4]
–,158 to 160,"COc1cccc([C@H]2O[C@H](Cc3nnn[nH]3)C(=O)N(CC(C)(C)CO)c3ccc(Cl)cc32)c1OC [Compound 11, (3R, 5S)-7-Chloro-5-(2,3-dimethoxyphenyl)-1-(3-hydroxy-2,2-dimethylpropyl)-1,2,3,5-tetrahydro-3-[1H (or 3H)-tetrazol-5-yl]methyl-4,1-benzoxazepin-2-one]"
12,174 to 175,"COc1cccc([C@H]2O[C@H](CC(=O)N3CCC(CP(=O)(O)O)CC3)C(=O)N(CC(C)(C)C)c3ccc(Cl)cc32)c1OC [Compound 23, N-[(3R,5S)-7-chloro-5-(2,3-dimethoxyphenyl)-1-neopentyl-2-oxo-1,2,3,5-tetrahydro-4,1-benzoxazepine-3-acetyl]-4-phosphonomethylpiperidine]"
13,–,COc1cccc([C@H]2O[C@H](CC(=O)NS(=O)(=O)c3ccccc3C)C(=O)N(CC(C)(C)C)c3ccc(Cl)cc32)c1OC [Compound 17-1]

# Reference: patent publication US6613761B1, “Benzoxazepine compounds, their production and use” (Takeda Chemical Industries, Ltd., priority 1995, dated 2003)
